Data on nine compounds can be found in patent US20130096098A1, “Light Insensitive Silver(i) Cyanoximates As Antimicrobial Agents For Indwelling Medical Devices” (MISSOURI STATE UNIVERSITY, priority 2011, published 2013).

Where two headings read alike, the source gives them in different places.

The subject of data set [1] is inoculated microorganisms. The data set is described as follows: Antibacterial tests in solid state: soaked dried filter paper disks on agar plates. It is filed as cell-based. The settings on record: deposited on filter papers from DMF 10 mg/mL, 20 μL; 37° C., 24 h. The text has this: (§1) Antimicrobial Activity Studies. Bacterial Strains and Growing Conditions. The strains of bacteria were obtained from Polish Collection of Microorganisms (PCM) of the Institute of Immunology and Experimental Therapy of Polish Academy of Sciences and were used throughout this study. Both Gram-negative and Gram-positive bacteria, as well as yeasts, commonly isolated from patients suffering implant-related infections, were chosen for experiments. They included Escherichia coli PCM 1144 (ATCC #10536), Klebsiella pneumoniae PCM 57, Proteus sp. PCM 542 (ATCC #13315), Pseudomonas aeruginosa PCM 2563 (ATCC #15442), Streptococcus mutans PCM 2502, Staphylococcus aureus PCM 2602 (ATCC #6538), Enterococcus hirae PCM 2559 (ATCC #10541), Mycobacterium fortuitum PCM 672, Candida albicans PCM 2566 (ATCC #10231). In addition, several multidrug-resistant bacterial strains isolated from patients with nosocomial infections K. pneumoniae 244, P. aeruginosa 2314, AMA, Enterococcus faecium VRE (vancomycin-resistant), Streptococcus pneumoniae PCI, S. aureus MRSA (methicillin-resistant), S. aureus MRSC (coagulase-negative methicillin-resistant), were also included in the in vitro testing. Bacteria were cultivated on sugar broth at 37° C. for 24 h in aerobic conditions, and prior to use in tests, cells were diluted with the same medium to obtain suspensions of about 2×10^5 cfu/mL.
Antibacterial Tests in Solid State: Soaked Dried Paper Disks and Pellets. Solutions (or suspensions if the compound was not completely solubilized) of studied Ag(I) cyanoximates in DMF at 10 mg/mL concentration were prepared and 20 μL of it was placed on filter paper discs (diameter 12 mm). These discs were dried for ˜2 h in the dark prior to testing where each filter was placed on agar plates with inoculated microorganisms, which were then incubated at 37° C. for 24 h. Thereafter, microorganisms' growth inhibition zone (if present) was measured (in mm).

The test system of the next data set is Mycobacterium fortuitum. As to the kind of experiment: Antibacterial tests in solid state: pressed AgL pellets on agar plates. In kind it is cell-based.
Text: as §1
(§2) Also, Ag(I) cyanoximates were pressed into 12 mm in diameter pellets using a Carver 20 tons hydraulic press. The method of testing pellets was similar to the one described above. Solid pellets of AgL were carefully placed on agar plates with inoculated bacteria. The exposition time was 24 h at 37° C., after which inhibition zones were measured and results were documented by digital photography.

For the next data set, the system named is Pseudomonas aeruginosa. The description is as above. In kind it is cell-based.
Text: as §1, §2

The next data set concerns bacterial strains. As to the kind of experiment: Antibacterial tests in solutions, microplate Alamar Blue assay (MIC). The settings on record: stock in DMSO, 37° C., 48 h, tested infection agents. In kind it is cell-based. The text has this: Antimicrobial Activity Studies. Bacterial Strains and Growing Conditions. The strains of bacteria were obtained from Polish Collection of Microorganisms (PCM) of the Institute of Immunology and Experimental Therapy of Polish Academy of Sciences and were used throughout this study. Both Gram-negative and Gram-positive bacteria, as well as yeasts, commonly isolated from patients suffering implant-related infections, were chosen for experiments. They included Escherichia coli PCM 1144 (ATCC #10536), Klebsiella pneumoniae PCM 57, Proteus sp. PCM 542 (ATCC #13315), Pseudomonas aeruginosa PCM 2563 (ATCC #15442), Streptococcus mutans PCM 2502, Staphylococcus aureus PCM 2602 (ATCC #6538), Enterococcus hirae PCM 2559 (ATCC #10541), Mycobacterium fortuitum PCM 672, Candida albicans PCM 2566 (ATCC #10231). […]
Antibacterial Tests in Solutions. The antibacterial activities of synthesized Ag(I) cyanoximates were determined against bacterial strains by the microplate Alamar Blue assay. […] The fluorescence was measured using Victor^2 apparatus (Wallac, Perkin-Elmer), and the experiment was repeated three times. […] Means and standard error values were determined using the Microsoft Excel.

Data set [2] in a line: UV-light stability studies, low-pressure Hg lamp 254 nm. It is filed as physicochemical. As to the method:
Photophysical Measurements. Light sensitivity and stability of synthesized Ag(I) cyanoximates was studied at 296 K using a low-pressure Hg lamp with >85% output at λmax=254 nm where the intensity of light was measured with a UVX radiometer (UK). After 4 min warm-up time, this lamp generated a steady flux of UV-radiation that was equal to the dose of 10.13 J/cm^2 within 30 min. Prior to these investigations, complexes were thoroughly dried under high vacuum (<10^−4 Torr) and ground into a powder using an agate mortar. This made it easy to apply these compounds to paper, adhesive tape, or cardboard. Samples of complex were spread on white cardboard with an exposed circular area (via a mask) of ˜3 cm. The radiation source was positioned 1 cm from the sample. A pristine white silver chloride prepared in the dark was used as a control substance to access the light stability of silver(I) cyanoximates. Digital pictures of irradiated samples were taken every 30 min using a stationary digital camera (Kodak DX7630; 6.1 Mpx), and native images were cropped to square shape without any contrast or brightness editing using Samsung Digimax Viewer 2.0 software.

Where [3] appears, read: 12 mm pressed pellets, 24 h at 37° C., FIG. 10.

Consider `N#CC(=N[O-])C(=O)c1ccccc1.[Ag+]` [Ag(BCO), Silver(I) α-Oximido-(2-benzoyl)acetonitrile], for which, in data set [1], the “effect on bacterial growth on solid media (inhibition zones)” value (shortened to “effect … (inhibition zones)”) was “exhibit antimicrobial activity in the solid state”.

In the case of `Cn1c(C(C#N)=N[O-])nc2ccccc21.[Ag+]` [Ag(BIMCO), Silver(I) α-Oximido-(2-[N-methyl]benzoimidazolyl)acetonitrile], the “effect … (inhibition zones)” value in data set [1] is recorded as “exhibit antimicrobial activity in the solid state”.

Regarding `N#CC(=N[O-])c1nc2ccccc2o1.[Ag+]` [Ag(BOCO), 2-(Oximido)-2-benzoxazoleacetonitrile Silver(I)], the “effect … (inhibition zones)” value in data set [1] is reported as “exhibit antimicrobial activity in the solid state”. The growth inhibition zone entry with Mycobacterium fortuitum (setting [3]) and in the data set with Pseudomonas aeruginosa (setting [3]) was “clear inhibition zones” each time.

For the compound `CN(C)C(=O)C(C#N)=N[O-].[Ag+]` [Ag(DCO), Silver(I) α-Oximido-([N,N-dimethylamine]acetamide)acetonitrile], in the data set on bacterial strains, the “minimal inhibitory concentration (MIC), ranking” value is “lowest MIC value”. Moreover, the “effect … (inhibition zones)” value in data set [1] is reported as “exhibit antimicrobial activity in the solid state”. Also, the growth inhibition zone result in the data set on Mycobacterium fortuitum and with Pseudomonas aeruginosa was “clear inhibition zones” throughout. For the same compound, in data set [2], the “stability toward short wavelength UV-radiation” value is “resistance”.

With `CCOC(=O)C(C#N)=N[O-].[Ag+]` [Ag(ECO), Silver(I) α-Oximido-(ethylacetoxy)acetonitrile], the “effect … (inhibition zones)” value in data set [1] is “exhibit antimicrobial activity in the solid state”. Moreover, the growth inhibition zone result in the data set on Mycobacterium fortuitum (setting [3]) and in the data set with Pseudomonas aeruginosa (setting [3]) was “clear inhibition zones” throughout.

Turning to `[Cl][Ag]` [AgC1, silver chloride, reference compound], the “stability toward short wavelength UV-radiation” value in data set [2] was “completely darken”.

Regarding “Silver(I) Nitrosodicyanomethanide [Ag(CCO)]”, the “effect … (inhibition zones)” value in data set [1] is on record as “exhibit antimicrobial activity in the solid state”. Also, the growth inhibition zone result in the data set on Mycobacterium fortuitum (setting [3]) and in the data set with Pseudomonas aeruginosa (setting [3]) was “clear inhibition zones” each time. In data set [2] (solid powders, 254 nm, 296 K, FIG. 8), the “stability toward short wavelength UV-radiation” value was “resistance”.

In the case of “Silver(I) α-Oximido-(2-pivaloyl)acetonitrile [Ag(PiCO)]”, in the data set with bacterial strains, the “minimal inhibitory concentration (MIC), ranking” value is listed as “lowest MIC value”. Further, the “effect … (inhibition zones)” value in data set [1] is listed as “exhibit antimicrobial activity in the solid state”.

Turning to “Silver(I) α-Oximido-(acetamide)acetonitrile [Ag(ACO)]”, in data set [2], the “stability toward short wavelength UV-radiation” value is recorded as “resistance”.
